In one experiment the test system is p53. Kind of experiment: Induction of cellular p53 by cell death inducers, immunoblotting. The experiment is classed as cell-based, human. To be noted: WISH cells; 24 h (TNFα plus IFN-γ 48 h). As for the experimental part:
The following experiment was carried out in order to confirm that the protective effect of C/EBPβ from cell death inducers is independent of the transfection process. Thus, B16 mouse melanoma cells, stably transfected with an inducible C/EBPβ expression vector (Clone F-10.9) were obtained from M. Revel and J. Chebath, Weizmann Institute of Science, Israel. Induction of C/EBPβ expression was triggered by addition of the antibiotic doxycycline (1 μg/ml, 24 h, Sigma) to the culture medium and was evaluated by both RT-PCR and immunoblotting. RT-PCR was performed as follows: F-10.9 cells (10^6) were harvested and total RNA was extracted by using the Rneasy® kit- from QIAGEN. cDNA was prepared by using random hexamers (Invitrogen) and M-MLV Reverse Transcriptase (Promega) according to the manufacturer's instructions. PCR was performed with the following primers: mouse C/EBPβ, 5′-[…] and 5′-[…]. Amplifications were done by initial denaturation (95° C., 4 min), 27 cycles of denaturation (95° C., 80 s), annealing (57° C., 60 s) and extension (72° C., 80 s), and final extension (72° C., 5 min). The resulting PCR products were resolved by agarose (1%) gel electrophoresis. […] For immunoblotting, cells were washed three times with ice-cold PBS and immediately frozen in liquid nitrogen. Cell pellets were re-suspended in four packed cell volumes of cytoplasmic buffer (10 mM Hepes, pH 7.9, 10 mM NaCl, 0.2 mM EDTA, 5% glycerol, 1.5 mM MgCl2, 1 mM DTT, 0.5 mM PMSF, 50 mM NaF, 0.1 mM Na3VO4, 2 mM EGTA, 10 mM Na2MoO4, 2 μg/ml each of leupeptin, pepstatin, and aprotinin). The suspension was freeze/thawn twice, incubated on ice for 20 min and then centrifuged (3,000×g, 10 min, 4° C.). The supernatant containing the proteins was collected and protein concentration was determined by a BCA Protein assay kit (Pierce), using BSA as a standard. Protein extracts (10 μg) were boiled in SDS/PAGE sample buffer containing 25 mM DTT and the supernatant was resolved by SDS/PAGE (10% acrylamide). The gel was then blotted onto a nitrocellulose membrane and proteins were detected with the indicated antibodies. Immune complexes were identified with a Super Signal detection kit (Pierce.).
It was recently reported that C/EBPβ binds to p53 and inhibits its activity, part of which could be induction of apoptosis. We carried out several experiments to find out if the protective effect of C/EBPβ over-expression against apoptosis induced by cell death inducers involves inhibition of p53. Initially, we determined which of the cell death inducers used for induction of apoptosis elevates the level of cellular p53. For this purpose, WISH cells were treated with; etoposide (50 μM for 24 h); MG262 (0.1 μM, for 24 h); TNFα (100 ng/ml) plus IFN-γ (1000 IU/ml) for 48 h; doxorubicin (1.8 μM, for 24 h); vincristine (0.1 μg/ml, for 24 h); FasL (60 ng/ml, 24 h); tunicamycin (1 μg/ml, for 24 h) or ALLN (26 μM, for 24 h), and extracts of these cells were subjected to immunoblotting with anti p53 (mab dd1+1801, 1:40 from M. Oren, WIS) as described in Example 6.
For orientation: Immunoblotting shows a protein as a band on a membrane.

For a further experiment, the system named is WISH cells. The experiment is described as follows: Protection of WISH cells from cell death by pre-incubation with IGF-1 or IL-6. The experiment is classed as cell-based, human. As for the experimental part: WISH cells were pre-incubated with IGF-1 (200 ng/ml) for the indicated times. Doxorubicin (2 μM, for 16 h) was then added. […] The same results were obtained when apoptosis was induced by MG262, TNF-α plus IFN-γ, and tunicamycin (data not shown).
WISH Cells (30,000 cells/well) were pre incubated with 6.25, 12.5, 25, 50, 100, 200, 300, 400, 500, or 1000 IU/ml of IL-6 for 6 h and then 26 μM ALLN was added for 48 h.

The values below come from patent publication US20090263354A1, “Compositions and siRNAs for inhibiting C/EBPbeta” (Yeda Research and Development Co., Ltd., priority 2006, published 2009).

Turning to `CC(C)C[C@H](NC(=O)[C@H](CC(C)C)NC(=O)[C@H](CC(C)C)NC(=O)OCc1ccccc1)B(O)O` [MG262], the “induction of p53 (immunoblotting with anti p53)” value (“induction of p53” for short) in the experiment on p53 is “extensive induction of p53”. For `COc1cccc2c1C(=O)c1c(O)c3c(c(O)c1C2=O)C[C@@](O)(C(=O)CO)C[C@@H]3O[C@H]1C[C@H](N)[C@H](O)[C@H](C)O1` [doxorubicin], the “induction of p53” value in the experiment on p53 was “extensive induction of p53”. Regarding `COc1cc([C@@H]2c3cc4c(cc3[C@@H](O[C@@H]3O[C@@H]5CO[C@@H](C)O[C@H]5[C@H](O)[C@H]3O)[C@H]3COC(=O)[C@H]23)OCO4)cc(OC)c1O` [etoposide], the “induction of p53” value in the experiment on p53 was “did not induce p53”. For `CC[C@]1(O)C[C@H]2CN(CCc3c([nH]c4ccccc34)[C@@](C(=O)OC)(c3cc4c(cc3OC)N(C=O)[C@H]3[C@@](O)(C(=O)OC)[C@H](OC(C)=O)[C@]5(CC)C=CCN6CC[C@]43[C@@H]65)C2)C1` [vincristine], the “induction of p53” value with p53 is “did not induce p53”. Take “IGF-1: growth factor IGF-1 added to the culture medium”: the “protection of WISH cells from doxorubicin” value in the experiment on WISH cells (IGF-1 200 ng/ml pre-incubation, doxorubicin 2 μM, 16 h) is “did not protect”. The “protection of WISH cells from other apoptosis inducers” value in the experiment with WISH cells (IGF-1, apoptosis induced by MG262, TNF-α plus IFN-γ, and tunicamycin, data not shown) is recorded as “same results”. Turning to IL-6: cytokine IL-6, the “protection from apoptosis induced by ALLN” value with WISH cells (IL-6 6.25-1000 IU/ml, 6 h before ALLN 26 μM, 48 h) is listed as “did not protect”. Regarding tunicamycin, the “induction of p53” value in the experiment with p53 is “did not induce p53”.

B1: FasL: Fas ligand, cytotoxic cytokine (protein, UniProt P48023 130-281, looked up)
Tumor necrosis factor ligand …: QIGHPSPPPEKKELRKVAHLTGKSNSRSMPLEWEDTYGIVLLSGVKYKKGGLVINETGLYFVYSKVYFRGQSCNNLPLSHKVYMRNSKYPQDLVMMEGKMMSYCTTGQMWARSSYLGAVFNLTSADHLYVNVSELSLVNFEESQTFFGLYKL
B1: the “induction of p53” value in the experiment with p53 was “did not induce p53”.
